Measurements as given in paper PMC2905628 (Molecular cancer therapeutics, 2010).
pIC50: −log10 of the molar value.

Target: T1, protein kinase D2 (PKD2) (Homo sapiens, UniProt Q9BZL6)
T1 sequence (Q9BZL6 1-878): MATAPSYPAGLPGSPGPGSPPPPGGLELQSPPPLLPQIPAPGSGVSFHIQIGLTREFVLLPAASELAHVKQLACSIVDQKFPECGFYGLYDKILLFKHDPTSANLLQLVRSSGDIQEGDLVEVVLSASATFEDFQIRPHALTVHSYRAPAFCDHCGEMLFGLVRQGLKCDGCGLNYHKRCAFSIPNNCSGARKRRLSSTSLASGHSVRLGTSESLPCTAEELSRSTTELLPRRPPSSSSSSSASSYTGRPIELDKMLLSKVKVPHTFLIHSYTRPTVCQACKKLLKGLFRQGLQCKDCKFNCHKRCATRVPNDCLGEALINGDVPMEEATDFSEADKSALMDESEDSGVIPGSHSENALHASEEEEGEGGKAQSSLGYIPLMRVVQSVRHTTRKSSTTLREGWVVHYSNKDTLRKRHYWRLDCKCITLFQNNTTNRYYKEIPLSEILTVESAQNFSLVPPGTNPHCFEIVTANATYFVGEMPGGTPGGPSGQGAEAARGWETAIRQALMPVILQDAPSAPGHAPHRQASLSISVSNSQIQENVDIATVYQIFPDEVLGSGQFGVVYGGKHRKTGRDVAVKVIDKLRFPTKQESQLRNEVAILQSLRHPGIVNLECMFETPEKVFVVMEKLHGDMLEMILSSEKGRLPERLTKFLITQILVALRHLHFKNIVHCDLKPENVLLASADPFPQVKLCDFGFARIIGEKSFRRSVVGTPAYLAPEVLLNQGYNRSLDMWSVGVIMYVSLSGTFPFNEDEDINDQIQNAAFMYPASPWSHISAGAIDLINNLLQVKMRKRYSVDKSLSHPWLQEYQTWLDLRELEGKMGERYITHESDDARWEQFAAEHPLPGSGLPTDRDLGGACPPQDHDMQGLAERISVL
Assay: IMAP fluorescence polarization kinase assay, peptide substrate phosphorylation
Type: biochemical

**Q.** With `CC[C@@H](N)CNc1ccnc(-c2cc(-c3cnn(C)c3)ccc2O)n1` [CRT0066101] as the compound, how does the pIC50 read?
**A.** Its pIC50 is 8.60.
